In the test the target is T1, full-length human PKCι (Homo sapiens, UniProt P41743).
T1 construct: Recombinant, full-length human PKCι expressed in Sf21 insect cells is also commercially available; purchased; host or cells: Sf21 insect cells
T1 sequence (P41743 1-596): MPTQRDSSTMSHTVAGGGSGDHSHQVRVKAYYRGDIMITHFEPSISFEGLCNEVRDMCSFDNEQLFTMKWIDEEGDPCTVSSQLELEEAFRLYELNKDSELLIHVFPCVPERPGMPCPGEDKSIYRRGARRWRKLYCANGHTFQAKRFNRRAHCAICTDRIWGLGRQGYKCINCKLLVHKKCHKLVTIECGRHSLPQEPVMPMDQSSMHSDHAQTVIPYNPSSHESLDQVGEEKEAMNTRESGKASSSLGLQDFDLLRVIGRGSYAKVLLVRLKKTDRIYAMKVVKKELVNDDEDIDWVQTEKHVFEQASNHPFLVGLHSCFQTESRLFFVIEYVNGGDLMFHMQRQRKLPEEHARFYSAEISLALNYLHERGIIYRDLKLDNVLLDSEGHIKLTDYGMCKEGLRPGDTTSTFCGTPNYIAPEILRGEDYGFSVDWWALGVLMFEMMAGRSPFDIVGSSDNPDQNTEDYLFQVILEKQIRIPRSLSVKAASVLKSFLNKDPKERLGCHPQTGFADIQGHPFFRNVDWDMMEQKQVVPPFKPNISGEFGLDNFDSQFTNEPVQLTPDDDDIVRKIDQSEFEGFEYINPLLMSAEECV
Put plainly: PKCι IC50 IMAP assay, full-length PKCι at 150 μM ATP. It counts as biochemical. Particulars: read-out: IC50 in IMAP assay against full length PKCi at 150 μM ATP. Put shortly: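 IC50 from IMAP FP (ex 485/em 530 nm) after 60 min room-temperature reaction in pH 7.5 tris buffer with 9 mM MgCl2 and 0.9 mM DTT. Enzyme: full-length Sf21-expressed PKCι (~15 pM); ATP 150 μM, five times KM^APP; FAM-labelled peptide 100 nM; DMSO 4%.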

A value given as a limit tells only on which side of the number the result lay.

As to `c1cc(-c2nc(N3CCNCC3)c3c(C4CC4)cncc3n2)cc(N[C@@H]2C[C@H]3CC[C@@H]2O3)n1` (racemic) [Example 2093, (±)-exo-[4-(5-Cyclopropyl-4-piperazin-1-yl-pyrido[3,4-d]pyrimidin-2-yl)-pyridin-2-yl]--7-oxa-bicyclo[2.2.1]hept-2-yl-amine], the IC50 (as a rule, the concentration needed to halve the response being measured) was less than 100 nM.

With `c1ccc(Nc2cc(-c3nc(N4C[C@@H]5C[C@H]4CN5)c4ccncc4n3)ccn2)cc1` [Example 306, {4-[(1S,4S)-4-(2,5-Diaza-bicyclo[2.2.1]hept-2-yl)-pyrido[3,4-d]pyrimidin-2-yl]-pyridin-2-yl}-phenyl-amine], the IC50 lay in the range of 1000 to 10000 nM.

With `CC1(C)CN(c2nc(-c3ccnc(Nc4nc(F)cc(F)c4F)c3)nc3cncc(C4CC4)c23)CCN1` [Example 845, {4-[5-Cyclopropyl-4-(3,3-dimethyl-piperazin-1-yl)-pyrido[3,4-d]pyrimidin-2-yl]-pyridin-2-yl}-(3,4,6-trifluoro-pyridin-2-yl)-amine], the IC50 was less than 100 nM.

Consider “(3S)-3-benzyl-1-[6- chloro-2-(pyridin-4- yl)pyrido[3,4-d]- pyrimidin-4- yl]piperazine [Example 14]”, for which the IC50 was 100 to 1000 nM.

As for `COc1cncc2nc(-c3ccnc(Nc4cc(C(N)=O)ccn4)c3)nc(N3CCNCC3)c12` [Example 379, 2-[4-(5-Methoxy-4-piperazin-1-yl-pyrido[3,4-d]pyrimidin-2-yl)-pyridin-2-ylamino]-isonicotinamide], the IC50 was less than 100 nM.

For the compound `c1ccc2c(c1)[nH]c1nccc(-c3nc(N4CCNCC4)c4ccncc4n3)c12` [Example 2091, 4-(4-Piperazin-1-yl-pyrido[3,4-d]pyrimidin-2-yl)-9H-pyrido[2,3-b]indole], the IC50 was less than 100 nM.

As for `COc1cc(Nc2cc(-c3nc(N4CCNCC4)c4c(OC)cncc4n3)ccn2)ccc1N1CCOCC1` [Example 382, (3-Methoxy-4-morpholin-4-yl-phenyl)-[4-(5-methoxy-4-piperazin-1-yl-pyrido[3,4-d]pyrimidin-2-yl)-pyridin-2-yl]-amine], the IC50 is less than 100 nM.

For the compound `CN1CCN(c2cccc(Nc3cc(-c4nc(N5CCCCCC5)c5c(C6CC6)cncc5n4)ccn3)c2)CC1` [Example 804, [4-(4-Azepan-1-yl-5-cyclopropyl-pyrido[3,4-d]pyrimidin-2-yl)-pyridin-2-yl]-[3-(4-methyl-piperazin-1-yl)-phenyl]-amine], the IC50 was 100 to 1000 nM.

`CC(C)(C)c1cc2c(-c3nc(N4CCNCC4)c4c(C5CC5)cncc4n3)c(Cl)cnc2[nH]1` [Example 1229, 2-(2-tert-Butyl-5-chloro-1H-pyrrolo[2,3-b]pyridin-4-yl)-5-cyclopropyl-4-piperazin-1-yl-pyrido[3,4-d]pyrimidine]: the IC50 was less than 100 nM.

For the compound `Cn1nccc1-c1ccc(Nc2cc(-c3nc(N4CCNCC4)c4c(C5CC5)cncc4n3)ccn2)c(F)c1` [Example 2055, [4-(5-Cyclopropyl-4-piperazin-1-yl-pyrido[3,4-d]pyrimidin-2-yl)-pyridin-2-yl]-[2-fluoro-4-(2-methyl-2H-pyrazol-3-yl)-phenyl]-amine], the IC50 is less than 100 nM.

As for `C[C@H](Nc1cc(-c2nc(N3CCNCC3)c3c(C4CC4)cncc3n2)ccn1)c1ccccc1` [Example 587, [4-(5-Cyclopropyl-4-piperazin-1-yl-pyrido[3,4-d]pyrimidin-2-yl)-pyridin-2-yl]-((S)-1-phenyl-ethyl)-amine], the half-maximal inhibitory concentration (IC50) is less than 100 nM.

As for `CN1CCN(c2cccc(Nc3cc(-c4nc(N5CC(O)C5)c5c(C6CC6)cncc5n4)ccn3)c2)CC1` [Example 777, 1-(5-Cyclopropyl-2-{2-[3-(4-methyl-piperazin-1-yl)-phenylamino]-pyridin-4-yl}-pyrido[3,4-d]pyrimidin-4-yl)-azetidin-3-ol], the IC50 lay within 100 to 1000 nM.

With `COc1cncc2nc(-c3ccncc3)nc(N3CCNC(C(=O)Nc4ccccc4)C3)c12` (centres unmarked) [Example 156, 4-(5-Methoxy-2-pyridin-4-yl-pyrido[3,4-d]pyrimidin-4-yl)-piperazine-2-carboxylic acid phenylamide], the IC50 was in the range of 1000 to 10000 nM.

Regarding `COc1cncc2nc(-c3ccnc(Nc4ccccn4)c3)nc(N3CCNCC3)c12` [Example 387, [4-(5-Methoxy-4-piperazin-1-yl-pyrido[3,4-d]pyrimidin-2-yl)-pyridin-2-yl]-pyridin-2-yl-amine], the IC50 is less than 100 nM.

In the case of `c1ccc(Nc2cc(-c3nc(N4CCNC5CC54)c4c(C5CC5)cncc4n3)ccn2)cc1` (centres unmarked) [Example 537, {4-[5-Cyclopropyl-4-(2,5-diaza-bicyclo-[4.1.0]hept-2-yl)-pyrido[3,4-d]-pyrimidin-2-yl]-pyridin-2-yl}-phenyl-amine], the IC50 is less than 100 nM.

Turning to `COc1cncc2nc(-c3ccnc(Nc4ccc(C(N)=O)cn4)c3)nc(N3CCNCC3)c12` [Example 380, 6-[4-(5-Methoxy-4-piperazin-1-yl-pyrido[3,4-d]pyrimidin-2-yl)-pyridin-2-ylamino]-nicotinamide], the IC50 was less than 100 nM.

Take `COc1cncc2nc(-c3ccnc(Nc4cncc(C)c4)c3)nc(N3CCNCC3)c12` [Example 416, [4-(5-Methoxy-4-piperazin-1-yl-pyrido[3,4-d]pyrimidin-2-yl)-pyridin-2-yl]-(5-methyl-pyridin-3-yl)-amine]: the IC50 is less than 100 nM.

For `Clc1ccccc1Nc1cc(-c2nc(N3CCNCC3)c3c(C4CC4)cncc3n2)ccn1` [Example 477, (2-Chloro-phenyl)-[4-(5-cyclopropyl-4-piperazin-1-yl-pyrido[3,4-d]pyrimidin-2-yl)-pyridin-2-yl]-amine], the IC50 was less than 100 nM.

Consider `Fc1ccc(OC(F)(F)F)cc1Nc1cc(-c2nc(N3CCNCC3)c3c(C4CC4)cncc3n2)ccn1` [Example 555, [4-(5-Cyclopropyl-4-piperazin-1-yl-pyrido[3,4-d]pyrimidin-2-yl)-pyridin-2-yl]-(2-fluoro-5-trifluoromethoxy-phenyl)-amine], for which the IC50 lay in the range of 100 to 1000 nM.

For `c1cc(-c2nc(N3CCSCC3)c3ccncc3n2)ccn1` [Example 24, 4-[2-(pyridin-4-yl)pyrido[3,4-d]-pyrimidin-4-yl]-thiomorpholine], the IC50 lay in the range of 10000 to 40000 nM.

Turning to `COc1cncc2nc(-c3ccnc(Nc4ccc(N5CCOCC5)cc4F)c3)nc(N3CCNCC3)c12` [Example 418, (2-Fluoro-4-morpholin-4-yl-phenyl)-[4-(5-methoxy-4-piperazin-1-yl-pyrido[3,4-d]pyrimidin-2-yl)-pyridin-2-yl]-amine], the IC50 was less than 100 nM.

Turning to `COc1cncc2nc(-c3ccncc3)nc(N3CCOC(Cc4ccccc4)C3)c12` (centres unmarked) [Example 72, 2-benzyl-4-[5-methoxy-2-(pyridin-4-yl)pyrido[3,4-d]-pyrimidin-4-yl]-morpholine], the IC50 lay within 1000 to 10000 nM.

With `c1cc(-c2nc(N3CCNCC3)c3c(C4CCC4)cncc3n2)c2cc(C3CCOC3)[nH]c2n1` (centres unmarked) [Example 2184, 5-Cyclobutyl-4-piperazin-1-yl-2-[2-(tetrahydro-furan-3-yl)-1H-pyrrolo[2,3-b]pyridin-4-yl]-pyrido[3,4-d]pyrimidine], the IC50 is less than 100 nM.

As for `COCCNC(=O)C1CCN(c2nc(-c3ccnc(Nc4c(F)cccc4F)c3)nc3cncc(C4CC4)c23)CC1` [Example 739, 1-{5-Cyclopropyl-2-[2-(2,6-difluoro-phenylamino)-pyridin-4-yl]-pyrido[3,4-d]pyrimidin-4-yl}-piperidine-4-carboxylic acid (2-methoxy-ethyl)-amide], the IC50 lay within 100 to 1000 nM.

Turning to `c1cc(-c2nc(N3CCNCC3)c3c(C4CC4)cncc3n2)cc(Nc2cnn(C3CCCC3)c2)n1` [Example 796, (1-Cyclopentyl-1H-pyrazol-4-yl)-[4-(5-cyclopropyl-4-piperazin-1-yl-pyrido[3,4-d]pyrimidin-2-yl)-pyridin-2-yl]-amine], the IC50 is less than 100 nM.

On to `FC(F)c1cc2c(-c3nc(N4CCNCC4)c4c(C5CCC5)cncc4n3)ccnc2[nH]1` [Example 2114, 5-Cyclobutyl-2-(2-difluoromethyl-1H-pyrrolo[2,3-b]pyridin-4-yl)-4-piperazin-1-yl-pyrido[3,4-d]pyrimidine], for which the IC50 was less than 100 nM.

`Fc1ccc(F)c(Nc2cc(-c3nc(N4CCNCC4)c4c(C5CCC5)cncc4n3)ccn2)n1` [Example 799, [4-(5-Cyclobutyl-4-piperazin-1-yl-pyrido[3,4-d]pyrimidin-2-yl)-pyridin-2-yl]-(3,6-difluoro-pyridin-2-yl)-amine]: the IC50 was less than 100 nM.

Turning to `CS(=O)(=O)C[C@H]1CN(c2nc(-c3ccnc(Nc4c(F)cccc4F)c3)nc3cncc(C4CC4)c23)CCN1` [Example 772, {4-[5-Cyclopropyl-4-((R)-3-methanesulfonyl-methyl-piperazin-1-yl)-pyrido[3,4-d]pyrimidin-2-yl]-pyridin-2-yl}-(2,6-difluoro-phenyl)-amine], the IC50 was in the range of 100 to 1000 nM.

Take `Fc1cccc(F)c1Nc1cc(-c2nc(N3CCNCC3)c3c(Cl)cncc3n2)ccn1` [Example 254, [4-(5-Chloro-4-piperazin-1-yl-pyrido[3,4-d]pyrimidin-2-yl)-pyridin-2-yl]-(2,6-difluoro-phenyl)-amine]: the IC50 was less than 100 nM.

These data come from patent US9914730B2, “Azaquinazoline inhibitors of Atypical protein Kinase C” (Ignyta, Inc., priority 2012, dated 2018).
